The record followed here is patent publication US20140179664A1, “Heterocyclyl Pyrimidine Analogues As JAK Inhibitors” (Cellzome Limited, priority 2011, published 2014).

The assay has as its system STAT5 phosphorylation downstream of JAK3 in human YT cells. The assay is described as follows: pSTAT5 cell assay (IL-2 stimulated YT cells, AlphaScreen). It counts as cell-based. The settings on record: IL-2 stimulation, read-out: Inhibition values (IC50) pSTAT5. The source says: STAT5 phosphorylation represents one of the proximal events in the signalling cascade downstream of JAK3 activation. Therefore STAT5 phosphorylation is an appropriate readout to assess the mechanistic effect of JAK3 inhibition. Stimulation of human YT cells, an NK-like cell line, with interleukin-2 (IL-2) results in phosphorylation of STAT5 at tyrosine residue 694 (Tyr694) that can be quantitatively measured by immunodetection with specific antibodies and an appropriate detection method, in this case AlphaScreen assay technology.
Human YT cells were grown in RPMI medium (Lonza, BE12-167) with 2 mM L-Glutamine (Invitrogen, 25030-024) and 10% heat-inactivated FBS (Invitrogen, 10106-169) and kept in a humidified incubator (37° C., 5% CO2). Cells were harvested by centrifugation, washed once with HBSS (Invitrogen, 14180-046), resuspended in HBSS at 1.5×10^6 cells/ml and 0.9×10^4 cells were seeded in 6 μl per well in a 96 well White plate (PerkinElmer, 6005569).
Test compounds were dissolved in DMSO and a 1:3 dilution series (9 steps) was prepared. To generate a dose response curve, 3 μl of fourfold concentrated compound in 4% DMSO/HBSS were added to each cell sample in the 96 well plate resulting in a final DMSO concentration of 1% DMSO. Cells were incubated for one hour in a humidified incubator (37° C., 5% CO2). To each well 3 μl of a fourfold concentrated IL-2 solution (Recombinant human IL-2, Peprotech 200-02; 120 nM solution in HBSS) was added and incubated for 30 minutes at room temperature. Cells were lysed by adding 3 μl of 5× lysis buffer (SureFire lysis buffer; Perkin Elmer, TGRS5S10K) and incubated for 10 minutes at room temperature with gentle shaking
For signal detection by AlphaScreen® technology the SureFire phospho-STAT5 (Tyr694/Tyr699) kit was used according to instructions provided by the manufacturer (Perkin Elmer, TGRS5S10K). Acceptor beads were added as recommended by the manufacturer (Reactivation buffer/Activation buffer/Acceptor beads at a ratio of 40:10:1) and incubated at room temperature for 1.5 hours with gentle shaking Then donor beads were added as recommended (Dilution buffer/Donor beads at a ratio of 20:1) and incubated at room temperature for 1.5 hours with gentle shaking Plates were read on an Envision instrument (Perkin Elmer) with the AlphaScreen protocol. Data were analysed in BioAssay using the nonlinear regression for a sigmoidal dose-response with a variable slope.

Structures are written as SMILES.

On to `NC(=O)Cn1cc(Nc2ncc(Cl)c(N[C@H](CO)c3cccc(F)c3)n2)cn1` [Compound 87], for which the 50% inhibitory concentration (IC50) was below 250 nM.

One may read the IC50 as the point on the concentration scale where inhibition reaches its midpoint.
